# pEC50: −log10 of the molar value. Records with an inconclusive call do not appear. Activity calls are given as the source filed them.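 How the source made its calls: active means EC50 no more than tenfold above the top concentration tested, with valid fit and all samples agreeing; inconclusive means flat fit at 30 to 70% inhibition, poor fit, or split samples; inactive means EC50 beyond tenfold the top concentration tested.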
# Tested on: BJeLR fibroblast viability, Alamar Blue fluorescence, 48 h
# Experiment: BJeLR fibroblast growth inhibition, viability readout – cell-based, alamar blue fluorescence, 48 h, cherrypicked samples, dose response (AID 2610);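 further: BJ fibroblasts with hTERT plus SV40 large and small T and HRAS V12; EC50 for loss of viable cells so potency reflects cytotoxic compounds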
SMILES,pEC50,EC50
CCOc1ccc2c(c1)C(C)=CC(C)(C)N2S(=O)(=O)c1ccc(NC(C)=O)cc1,> 6.98,
COc1ccc(C)cc1Nc1c2c(nc3ccccc13)CCC2,6.53,
CC[C@@]1(O)C(=O)OCc2c1cc1n(c2=O)Cc2cc3c(CN(C)C)c(O)ccc3nc2-1,> 7.41,
COc1cc(C2c3cc4c(cc3C(OC3OC5COC(c6cccs6)OC5C(O)C3O)C3COC(=O)C23)OCO4)cc(OC)c1O (stereo not given),6.89,
O=C(N/N=C/c1cccnc1)c1ccc(NC(=O)C(c2ccccc2)c2ccccc2)cc1,6.46,
COc1ccc2c(C)nc(Nc3nc(-c4ccccc4)cc(=O)[nH]3)nc2c1,5.92,
Cc1nc(N)nc(N)c1CCCc1ccc(Cl)c(Cl)c1,,> 13300 nM (inactive)
N#CC1=C(N)Oc2cc(N)ccc2C1c1cccc(Br)c1 (stereo not given),6.50,
CCOc1ccc(C(=O)c2cc([N+](=O)[O-])ccc2N2CCOCC2)cc1,> 6.98,
CCN(CC)c1ccc(/C=N/NC(=O)c2ccco2)c(O)c1,6.09,
CCCCCN=Cc1c(C)[nH]n(-c2nc3ccccc3s2)c1=O,,> 13300 nM (inactive)
COCCCN=C1NN=C(c2cc(C)n(Cc3ccco3)c2C)CS1,> 6.98,
COc1ccc(C)cc1NS(=O)(=O)c1ccc(-c2cnc(C3CC3)o2)cc1,> 6.98,
O=c1cnnc(N/N=C/c2ccccn2)[nH]1,5.99,
Cc1ccc(C2CC(c3cccs3)=NN2C(=O)CCl)cc1 (stereo not given),6.14,
c1ccc2nc(-c3nc4ccccc4o3)ccc2c1,,> 13300 nM (inactive)
N#Cc1c(NC(=O)/C=C/c2ccco2)sc2c1CCCC2,> 6.98,
CCCCC(=O)NC(c1ccc(C(C)C)cc1)c1ccc2cccnc2c1O (stereo not given),5.19,
COc1ccccc1C1C2=C(COC2=O)Nc2cc3c(cc21)OCO3 (stereo not given),> 6.98,
COc1cccc(N2C(N)=NC(N)=NC2(C)C)c1,,> 13300 nM (inactive)

SMILES,pEC50,EC50
O=C(CSc1ccccn1)NCc1ccc2c(c1)OCO2,,> 13300 nM (inactive)
O=S(=O)(c1ccc2c(c1)C(=NO)c1cc(S(=O)(=O)N3CCCCC3)ccc1-2)N1CCCCC1,> 6.56,
CC(=O)c1ccc(NC(=O)N2CCc3ccccc3C2)cc1,,> 13300 nM (inactive)
COc1cc(C2CC(c3cccs3)=NN2C(=O)CCl)ccc1OC(F)F (stereo not given),6.57,
CCCCCCCCCC[n+]1cccc2c3ccccc3ccc21,5.10,
O=C(N/N=C/c1cc2c3c(c1O)CCCN3CCC2)c1ccccc1O,6.12,
CC1=CC(=O)C=C(C)C1=NOS(=O)(=O)c1ccccc1,5.52,
CC1CC(C)CN(S(=O)(=O)c2ccc(C(=O)NCCCn3ccnc3)cc2)C1 (stereo not given),6.82,
CCOc1ccc(N=Cc2c(C)[nH]n(-c3nc4ccccc4[nH]3)c2=O)cc1,,> 13300 nM (inactive)
CCCC(=O)OCCNc1cc(Sc2nccn2C)c2nonc2c1[N+](=O)[O-],5.60,
CCN1/C(=C\C=C\C2=[N+](CC)c3ccccc3C2(C)C)C(C)(C)c2ccccc21,6.62,
O=C(Cc1ccc(Cl)cc1)c1c[nH]c(C(=O)NCc2cccnc2)c1,,> 13300 nM (inactive)
O=C(c1cccs1)c1no[n+]([O-])c1C(=O)c1cccs1,5.52,
CCCCN=C[C@]12CCC(O)CC1(O)CCC1[C@@H]2CC[C@]2(C)[C@H](C3C=CC(=O)O3)CCC12O (stereo not given in full),6.50,
CC1(C)N=C(N)N=C(N)N1c1ccccc1,,> 13300 nM (inactive)
Cc1nc(N)nc(N)c1/C=C/C(C)(C)c1ccc(Cl)cc1,,> 13300 nM (inactive)
CCCCc1c(C)c(C#N)c2nc3ccccc3n2c1Cl,6.23,
COc1cc(/C=C/[N+](=O)[O-])ccc1O,5.19,
CCOC(=O)c1[nH]c(C)c(C(=O)N2CCc3ccccc32)c1C,> 6.98,
CCc1ccc(NC(=O)[C@H](Cc2c[nH]c3ccccc23)NC(=O)[C@@H]2Cc3ccccc3CN2)cc1,,> 13300 nM (inactive)

# Reference: PubChem BioAssay AID2610 (Broad Institute, 2010)
